Drawing on patent US20190135793A1, “HETEROCYCLIC INHIBITORS OF KDM5 FOR THE TREATMENT OF DISEASE” (Board of Regents, The University of Texas System, priority 2017, published 2019), this text covers IC50 for four molecules.

Read-outs that look alike come from different tables or passages of the source.

The target of one assay is T1, KDM5B (Homo sapiens, UniProt Q9UGL1).
T1 construct: Full length of KDM5B and KDM4C protein were purchased from Active Motif; purchased Active Motif 31832
The assay can be described thus: biochemical. In outline:
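KDM5B (0.5 nM final) was preincubated with compound for 15 min at room temperature, then reacted with biotinylated peptide (3 nM final) for 25 min at room temperature.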

The next assay has as its target T2, KDM4C (Homo sapiens, UniProt Q9H3R0).
T2 construct: Full length of KDM5B and KDM4C protein were purchased from Active Motif; purchased Active Motif 31858
T2 sequence (Q9H3R0 1-1056): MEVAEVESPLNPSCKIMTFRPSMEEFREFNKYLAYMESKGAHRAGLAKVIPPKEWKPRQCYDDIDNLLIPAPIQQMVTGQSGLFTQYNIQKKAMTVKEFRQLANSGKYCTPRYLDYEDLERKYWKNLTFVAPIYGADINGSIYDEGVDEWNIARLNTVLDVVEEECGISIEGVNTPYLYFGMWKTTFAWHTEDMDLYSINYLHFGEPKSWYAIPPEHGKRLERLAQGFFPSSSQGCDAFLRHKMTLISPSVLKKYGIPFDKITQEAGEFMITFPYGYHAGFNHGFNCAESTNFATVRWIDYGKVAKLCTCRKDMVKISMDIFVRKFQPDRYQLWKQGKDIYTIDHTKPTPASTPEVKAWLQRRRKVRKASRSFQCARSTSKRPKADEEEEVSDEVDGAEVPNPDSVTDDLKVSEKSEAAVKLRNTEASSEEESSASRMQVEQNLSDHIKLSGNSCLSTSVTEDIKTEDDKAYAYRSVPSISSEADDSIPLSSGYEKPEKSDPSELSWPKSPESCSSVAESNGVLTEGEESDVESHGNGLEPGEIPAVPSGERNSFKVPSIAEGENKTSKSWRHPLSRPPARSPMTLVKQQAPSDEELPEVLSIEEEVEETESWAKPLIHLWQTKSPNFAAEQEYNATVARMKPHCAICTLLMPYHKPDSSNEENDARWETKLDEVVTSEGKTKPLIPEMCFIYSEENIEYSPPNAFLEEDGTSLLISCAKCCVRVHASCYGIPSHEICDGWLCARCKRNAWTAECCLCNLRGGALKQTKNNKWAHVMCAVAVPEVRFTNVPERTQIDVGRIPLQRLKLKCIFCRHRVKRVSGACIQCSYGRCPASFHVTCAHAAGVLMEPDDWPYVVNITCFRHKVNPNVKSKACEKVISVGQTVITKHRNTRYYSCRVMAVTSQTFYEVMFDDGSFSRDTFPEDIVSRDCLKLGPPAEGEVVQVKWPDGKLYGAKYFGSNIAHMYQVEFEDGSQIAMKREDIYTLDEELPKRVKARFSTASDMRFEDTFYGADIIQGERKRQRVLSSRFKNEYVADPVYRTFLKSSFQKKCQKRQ
The assay can be described thus: KDM4C AlphaScreen assay. To be noted: AlphaScreen; full length KDM4C 0.2 nM; biotinylated H3K9Me3 peptide 3 nM; 30 minutes at room temperature. The format is biochemical. The method, boiled down:
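Full-length KDM4C (0.2 nM final) was preincubated 15 min at RT with compound in HEPES pH 7.4 with Tween-20, BSA and TCEP. The reaction ran 30 min at RT after adding biotinylated peptide (3 nM final) in buffer with Fe(II), α-ketoglutarate and ascorbate. EDTA-containing AlphaScreen beads stopped it; IC50 was curve-fitted.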
(In general: Bead proximity is the source of the signal in Alpha formats.)

The mark [1] stands for this setting: AlphaScreen, full length KDM5B 0.5 nM, biotinylated H3K4Me3 peptide 3 nM, 25 minutes at room temperature, read-out: KDM5B (IC50).

Usually IC50 stands for the concentration that gives 50% inhibition.

T1 sequence (Q9UGL1 whole entry): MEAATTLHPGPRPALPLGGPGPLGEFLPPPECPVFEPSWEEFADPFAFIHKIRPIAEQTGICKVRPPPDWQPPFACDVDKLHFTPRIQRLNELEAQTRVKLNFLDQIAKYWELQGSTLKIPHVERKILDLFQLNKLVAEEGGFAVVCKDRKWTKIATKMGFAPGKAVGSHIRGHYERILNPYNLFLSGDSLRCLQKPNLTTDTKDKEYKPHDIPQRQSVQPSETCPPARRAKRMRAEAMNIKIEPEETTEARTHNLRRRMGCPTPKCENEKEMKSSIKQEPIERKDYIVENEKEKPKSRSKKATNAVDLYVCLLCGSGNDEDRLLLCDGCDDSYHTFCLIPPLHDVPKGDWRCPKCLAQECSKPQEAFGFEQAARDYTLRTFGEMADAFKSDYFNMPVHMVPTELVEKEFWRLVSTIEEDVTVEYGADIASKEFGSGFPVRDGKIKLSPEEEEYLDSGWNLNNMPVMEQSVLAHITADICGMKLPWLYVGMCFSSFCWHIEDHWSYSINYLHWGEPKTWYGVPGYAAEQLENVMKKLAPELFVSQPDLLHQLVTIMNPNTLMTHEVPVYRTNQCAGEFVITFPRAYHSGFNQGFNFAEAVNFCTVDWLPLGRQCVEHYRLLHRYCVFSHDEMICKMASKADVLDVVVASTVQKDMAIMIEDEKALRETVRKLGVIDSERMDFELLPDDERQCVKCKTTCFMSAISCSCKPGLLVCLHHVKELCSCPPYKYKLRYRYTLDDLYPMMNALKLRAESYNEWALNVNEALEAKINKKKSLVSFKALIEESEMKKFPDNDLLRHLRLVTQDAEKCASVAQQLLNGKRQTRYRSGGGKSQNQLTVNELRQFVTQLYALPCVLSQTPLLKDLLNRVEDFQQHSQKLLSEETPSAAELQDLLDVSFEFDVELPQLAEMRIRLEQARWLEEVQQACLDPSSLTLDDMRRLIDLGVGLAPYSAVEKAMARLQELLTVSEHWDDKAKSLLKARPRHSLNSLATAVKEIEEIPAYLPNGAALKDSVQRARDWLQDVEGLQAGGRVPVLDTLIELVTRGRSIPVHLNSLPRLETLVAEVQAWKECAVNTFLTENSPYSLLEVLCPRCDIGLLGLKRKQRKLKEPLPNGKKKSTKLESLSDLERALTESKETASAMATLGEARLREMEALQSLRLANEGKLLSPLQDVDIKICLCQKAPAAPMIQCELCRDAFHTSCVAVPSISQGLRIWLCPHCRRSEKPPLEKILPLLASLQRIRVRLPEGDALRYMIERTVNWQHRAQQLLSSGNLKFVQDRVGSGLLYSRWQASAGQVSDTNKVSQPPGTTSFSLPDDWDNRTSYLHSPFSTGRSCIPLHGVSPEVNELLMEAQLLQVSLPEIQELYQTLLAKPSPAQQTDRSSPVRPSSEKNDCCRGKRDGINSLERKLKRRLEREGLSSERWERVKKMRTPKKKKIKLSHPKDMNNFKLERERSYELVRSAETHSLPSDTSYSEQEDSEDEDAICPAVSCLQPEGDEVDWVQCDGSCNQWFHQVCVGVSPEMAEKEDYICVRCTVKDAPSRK

Consider `CC(C)c1c(O)nc(-n2ccnc2)nc1-c1cnn(CC(=O)NCCN)c1` [Example 94, N-(2-Aminoethyl)-2-{4-[6-hydroxy-2-(1H-imidazol-1-yl)-5-(propan-2-yl)pyrimidin-4-yl]-1H-pyrazol-1-yl}-acetamide], for which the IC50 at KDM5B (setting [1]) is 6 nM; at KDM4C it was 340 nM.
For the molecule `CC(C)c1c(O)nc(-n2ccnc2)nc1OCCN(C)C` [Example 137, 6-[2-(Dimethylamino)-ethoxy]-2-(1H-imidazol-1-yl)-5-(propan-2-yl)pyrimidin-4-ol], the values for the IC50 on KDM5B (setting [1]) and at KDM4C were 58 nM and 975 nM, respectively.
`CC(C)c1c(O)nc(-n2ccnc2-c2ccccn2)nc1Cl` [Example 2, 6-Chloro-5-(propan-2-yl)-2-[2-(pyridin-2-yl)-1H-imidazol-1-yl]pyrimidin-4-ol]: the figures for the IC50 against KDM5B and against KDM4C were 229 nM and 3890 nM, respectively.
Turning to `CC(C)c1c(O)nc(-n2ccnc2)nc1-c1cnn(Cc2cccnc2)c1` [Example 45, 2-(1H-Imidazol-1-yl)-5-(propan-2-yl)-6-[1-(pyridin-3-ylmethyl)-1H-pyrazol-4-yl]-pyrimidin-4-ol], the IC50 came out at 10 nM at KDM5B (setting [1]) and 1140 nM against KDM4C.
